Source: patent EP2809669B1, “FUSED PYRROLEDICARBOXAMIDES AND THEIR USE AS PHARMACEUTICALS” (SANOFI, priority 2012, dated 2013)

What was measured:
[1] = test system: upper airway; assay: Effect on upper airway collapsibility in the anesthetized pig (negative pressure challenge); format: in vivo; details: 100 µg/kg intravenous bolus injection, negative pressure -150 mbar
Source text: Effect on upper airway collapsibility in the pig Pharmacological efficacy against obstructive apneas was investigated in chloralose-urethane anesthetized pigs (weight range 20 to 35 kg), a large-animal model for obstructive apneas. Negative pressure generated by a negative pressure device was applied with a cannula to the upper part of the trachea for at least three breaths so that the upper airway was exposed to the negative pressure generated by the device. This caused an upper airway collapse as in an obstructive apnea in control animals treated with vehicle only, and in animals of the treatment group before the test compound was administered (baseline situation). Different levels of negative pressure were used to cause a collapse of the upper airway (-50 mbar, -100 mbar and -150 mbar). These negative pressure challenges were repeated several times before vehicle or test compound was given, and at regular intervals after administration of vehicle or test compound. Whether the upper airway was collapsed or open, was judged by airflow measurement and by the tracheal pressure in the cannula inserted into the upper trachea. In case the upper airway was collapsed by the negative pressure, airflow to the negative pressure device was close to zero. As a second parameter tracheal pressure approached the negative pressure generated by the device during upper airway collapse. Test compounds were administered by intravenous bolus injection. After administration of an effective test compound the upper airway was open during the negative pressure challenges, i.e. not collapsed, as indicated by airflow to the negative pressure device and the fact that tracheal pressure now approached atmospheric pressure in the inspiratory phase where upper airway muscles are activated. In vehicle-treated controls upper airway collapse occurred at every negative pressure challenge at -50 mbar, -100 mbar and -150 mbar. In Table 17, the time after administration of compounds of the formula I from the examples above is shown during which no upper airway collapse occurred (time of inhibition of collapsibility) at a negative pressure of -150 mbar. […]

[2] = target: T1, hERG channel (Homo sapiens, UniProt Q12809); assay: Determination of the effect on the hERG channel in CHO cells (whole-cell patch clamp); format: cell-based; details: CHO cells stably expressing hERG, room temperature, read-out: IC50 value [µM] for hERG inhibition
T1 construct: expressed in transfected cells
Procedure: Determination of the effect on the hERG channel in CHO cells
An inhibition of the hERG (human Ether-a-go-go-Related Gene) potassium channel is unwanted because it can lead to dangerous arrhythmias. The effect of compounds of the formula I on the cloned human cardiac hERG channel was evaluated in an in vitro model using a whole-cell patch-clamping technique. CHO (Chinese hamster ovary) cells stably expressing hERG, the potassium channel underlying IKr currents in human hearts, were grown in HAM's F-12 media supplemented with 10 % fetal bovine serum, 1 x penicillin/streptomycin and 500 µg/ml G418 (Invitrogen, Carlsbad, CA, USA) in an atmosphere of 95 % air and 5 % carbon dioxide. Cells used for patch-clamping were seeded on glass or plastic coverslips 12 to 36 hours before use. hERG channel currents were recorded at room temperature using the whole-cell configuration of the patch clamp technique with an Axopatch 200B amplifier (Axon Instruments, Foster City, CA, USA). Briefly, electrodes (3 to 6 MΩ resistance) were fashioned from TW150F glass capillary tubes (World Precision Instruments, Sarasota, FL, USA) and filled with pipette solution (containing 120 mM potassium aspartate, 20 mM potassium chloride, 4 mM adenosine triphosphate disodium salt, 5 mM HEPES, 1 mM magnesium chloride; pH adjusted to 7.2 with potassium hydroxide). hERG currents were initiated by a positive voltage pulse (20 mV) followed by a negative pulse (-40 mV) and were recorded for off-line analyses. Once hERG current from a cell perfused with external solution (containing 130 mM sodium chloride, 5 mM potassium chloride, 2.8 mM sodium acetate, 1 mM magnesium chloride, 10 mM HEPES, 10 mM glucose, 1 mM calcium chloride; pH adjusted to 7.4 with sodium hydroxide) without the test compound, i.e. control solution, was stabilized, the cell was perfused with external solution containing the test compound at specific concentrations. For each concentration from each cell, peak amplitude of the steady-state hERG tail current at -40 mV was measured in picoAmpere (pA). The peak amplitude in pA for each concentration (up to a maximum concentration of 10 µM) was compared with that for the control solution from the same cell and expressed as percent value of the control. From the percent values at multiple concentrations, IC50 values for inhibition of hERG can be determined.

T1 sequence (Q12809 whole entry): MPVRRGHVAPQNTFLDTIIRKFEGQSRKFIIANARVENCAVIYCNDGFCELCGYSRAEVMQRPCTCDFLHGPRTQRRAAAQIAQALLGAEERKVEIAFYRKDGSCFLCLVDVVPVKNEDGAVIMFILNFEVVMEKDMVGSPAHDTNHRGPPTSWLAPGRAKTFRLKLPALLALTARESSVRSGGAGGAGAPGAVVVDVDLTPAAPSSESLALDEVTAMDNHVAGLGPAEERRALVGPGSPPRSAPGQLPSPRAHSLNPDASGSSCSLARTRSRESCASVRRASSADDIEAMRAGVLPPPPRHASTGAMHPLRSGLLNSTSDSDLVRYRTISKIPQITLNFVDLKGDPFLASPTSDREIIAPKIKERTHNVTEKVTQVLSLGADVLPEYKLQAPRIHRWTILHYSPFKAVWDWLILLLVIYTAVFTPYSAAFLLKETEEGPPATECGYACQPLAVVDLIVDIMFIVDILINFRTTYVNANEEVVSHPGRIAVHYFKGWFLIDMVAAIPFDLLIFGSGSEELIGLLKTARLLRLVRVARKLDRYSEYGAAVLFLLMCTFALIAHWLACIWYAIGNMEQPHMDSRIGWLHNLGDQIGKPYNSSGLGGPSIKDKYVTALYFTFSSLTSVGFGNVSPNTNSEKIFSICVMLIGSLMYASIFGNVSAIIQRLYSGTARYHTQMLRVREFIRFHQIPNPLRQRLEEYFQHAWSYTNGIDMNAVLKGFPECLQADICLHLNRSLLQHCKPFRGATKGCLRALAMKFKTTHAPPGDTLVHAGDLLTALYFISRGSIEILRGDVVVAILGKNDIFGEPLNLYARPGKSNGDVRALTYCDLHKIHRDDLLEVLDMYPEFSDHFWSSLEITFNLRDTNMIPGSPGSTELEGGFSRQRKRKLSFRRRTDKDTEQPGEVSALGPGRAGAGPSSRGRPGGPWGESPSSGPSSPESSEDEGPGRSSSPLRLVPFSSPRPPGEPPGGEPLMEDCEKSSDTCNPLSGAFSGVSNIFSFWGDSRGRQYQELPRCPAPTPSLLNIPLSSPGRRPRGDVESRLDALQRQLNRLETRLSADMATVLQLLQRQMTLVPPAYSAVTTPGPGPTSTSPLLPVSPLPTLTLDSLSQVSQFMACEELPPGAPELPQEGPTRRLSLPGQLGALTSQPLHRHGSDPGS

Structure (SMILES): CC[C@@H](NC(=O)c1cc(C(=O)N2CCC[C@@H]2C(=O)OC(C)C)n2c1COCC2)c1ccccc1 [16n, (R)-1-[8-((R)-1-Phenyl-propylcarbamoyl)-3,4-dihydro-1H-pyrrolo[2,1-c][1,4]oxazine-6-carbonyl]-pyrrolidine-2-carboxylic acid isopropyl ester]
- Time of inhibition of collapsibility (at -150 mbar) [1]: for 120 min
- IC50 [2]: > 10 µM
